Results on 1 compound are retold here after publication PMC12454639, “Direct disassembly of α-syn preformed fibrils into α-syn monomers by an all-D-peptide” (NPJ Parkinson's Disease, 2025).

The structures appear in SMILES notation. Square brackets hold non-standard residues; d marks the D form. Peptide text beside a SMILES is read from it.

One data set deals with small α-syn PFF seeds. Kind of data set: Protein quantification after centrifugation (precipitation of small α-syn PFF). Type of data set: physicochemical. To be noted: as DLS samples (200 nM PFF + 500 nM SVD-1a), 0, 20, 72 h at 37 °C, centrifuged 21,000×g 30 min, Micro-BCA, n = 3. Here is the method:
Measurements were performed using a SpectroSize 300 131 (XtalConcepts, GE) instrument and a sample volume of 1 ml in a sealed quartz cuvette (Hellma Group, GE). Samples were incubated in PBS pH 7.4 at 37 °C under quiescent conditions. Prior to measurements, all samples were centrifuged at 21,000×g for 30 min at 4 °C to remove potential impurities from the solution. For time-dependent DLS measurements, data points were recorded every 60 s. Diffusion coefficients were obtained from analysis of the decay of the scattered intensity autocorrelation function and were used to determine apparent hydrodynamic radii via the Stokes-Einstein equation. Kinetic fitting for the degradation of small α-syn PFF seeds was performed with the “SVD-1a + small α-syn PFF” sample using the “single-phase exponential decay function” of GraphPad Prism 10 (GraphPad Software Inc., USA), considering only particle sizes in the range of 1–100 nm with an amplitude > 0.2. […] Protein quantification after centrifugation was performed by incubating identical samples as in the DLS measurements with additional compound and buffer controls in low-binding reaction tubes at 37 °C under quiescent conditions (n = 3). […] Protein quantification of pellet and supernatant was performed using a Micro-BCA kit following the manufacturer’s instructions (Thermo Fisher Scientific, USA). […]

Data set [1] has as its system α-synA53T–YFP (HEK293T cells). The data set can be described thus: Seeded intracellular aggregation in α-synA53T–YFP cells. Type of data set: cell-based, human. As to conditions: day 3; for aggregate-positive cells: transfected, then 30 nM small α-syn PFF seeds. An excerpt: Fig. 5 SVD-1a inhibits seeded α-syn aggregation in cells. To validate the inhibitory effect of SVD-1a in cells, we used the α-synA53T–YFP cell system, which stably expresses human α-syn with the familial A53T mutation fused to YFP in HEK293T cells and enables fluorescence-based detection of aggregates that show up as highly fluorescent spots within the cells, clearly above background, intracellularly after seeding with small α-syn PFF seeds. In order to avoid interference of the peptide with the uptake of small α-syn PFF seeds, we performed a two-step transfection starting with a first transfection of the peptide and a second transfection with PFFs. […] To quantify the number of cells with aggregates in our images and to avoid experimental bias, we used a fully automated algorithm for image analysis. […] One asterisk denotes p values < 0.05 and three asterisks a p value < 0.001. Error bars indicate standard deviation. […] Treatment with increasing concentrations of SVD-1a, here imaged at 25 µM, led to a concentration-dependent reduction in the number of cells with aggregates (H-J). Panels B, E, and H show nuclei stained with Hoechst 33342. Panels C, F, and I show αSynA53T–YFP fluorescence. Panels D, G, and J show merged images. The scale bar in J represents 100 µm and applies to all panels. The viability of the cells was not reduced by transfection with seeds or in SVD-1a, as shown in Supplementary Fig. 15. Confirmation that highly fluorescent aggregates contain α-syn is shown in Supplementary Fig. 14 by co-immunostaining with syn-211 antibody, anti-α-syn (phospho S129) antibody and 5G4 antibody.
A construct encoding full-length A53T-mutated human α-syn fused with YFP at the C-terminus was synthesized and introduced into the pMK–RQ expression vector (GeneArt; Thermo Fisher Scientific, USA). The α-synA53T–YFP construct was subcloned into the pIRESpuro3 vector (Clontech; Takara Bio, JPN) using NheI (5′) and NotI (3′) restriction sites. HEK293T cells (American Type Culture Collection) were cultured in high-glucose Dulbecco’s modified Eagle’s medium (DMEM; Sigma-Aldrich, USA) supplemented with 10% fetal calf serum (Sigma-Aldrich, USA), and 50 units/ml penicillin as well as 50 μg/ml streptomycin (Sigma-Aldrich, USA). Cells were cultured in a humidified atmosphere of 5% CO2 at 37 °C. Cells plated in DMEM were transfected using Lipofectamine 2000 (Invitrogen; Thermo Fisher Scientific, USA). Stable cells were selected in DMEM containing 1 μg/ml puromycin (EMD Millipore, USA). Monoclonal lines were generated by fluorescence-activated cell sorting of a polyclonal cell population in 96-well plates using a MoFlo XDP cell sorter (Beckman Coulter, USA). Finally, the clonal cell line B5 was selected from among 24 clonal cell lines and is referred to as αSynA53T–YFP cells. Peptides were incubated with 1.5% Lipofectamine 2000 in OptiMEM for 2 h at room temperature. […] On day 3 the cells were imaged with an IN Cell Analyzer 6500HS System (Cytiva, USA) using the blue and green fluorescence channel, and analyzed using IN Carta Image Analysis Software (Cytiva, USA) after an algorithm was established to identify intracellular aggregates in living cells. For each condition, we used four wells and took 16 images per well, which were analyzed by a fully automated algorithm to avoid bias. […]

In the case of `CC[C@@H](C)[C@@H](NC(=O)[C@@H](Cc1c[nH]cn1)NC(=O)[C@@H](CCC(=O)O)NC(=O)[C@@H](CCC(N)=O)NC(=O)[C@@H](Cc1c[nH]c2ccccc12)NC(=O)[C@@H](Cc1ccc(O)cc1)NC(=O)[C@H](NC(=O)[C@@H](CCC(=O)O)NC(=O)[C@@H](Cc1c[nH]cn1)NC(=O)[C@H](NC(=O)[C@H]1CCCN1C(=O)[C@@H](CC(C)C)NC(=O)[C@H](N)CCCNC(=N)N)[C@H](C)O)[C@H](C)O)C(=O)N[C@H](Cc1c[nH]c2ccccc12)C(=O)N[C@H](Cc1c[nH]cn1)C(=O)N[C@H](C)C(=O)N[C@H](CCCNC(=N)N)C(=O)N[C@H](CCCNC(=N)N)C(=O)N[C@H](CCCNC(=N)N)C(=O)N[C@H](CCCNC(=N)N)C(=O)N[C@H](CCCNC(=N)N)C(N)=O` [SVD-1a] (H-[dR][dL][dP][dT][dH][dE][dT][dY][dW][dQ][dE][dH][dI][dW][dH][dA][dR][dR][dR][dR][dR]-NH2), the “precipitation of small α-syn PFF seeds” value with small α-syn PFF seeds is recorded as “did not lead to precipitation of these species”. The aggregate-positive cells stood at 64% in data set [1] (5 µM peptide) and 57% in data set [1] (25 µM peptide). Besides, the “inhibition of intracellular seeded α-syn aggregation” value in data set [1] (peptide transfection, then 30 nM PFF seeds) was “inhibited α-syn aggregation in αSynA53T–YFP cells in a dose-dependent manner”.
